From paper PMC3189933, “Acylpeptide Hydrolase Inhibition as Targeted Strategy to Induce Proteasomal Down-Regulation” (PLoS ONE, 2011)

Assays:
APEHSs = assay: Inhibition of S. solfataricus APEH (APEHSs), Ac-Leu-pNA substrate; format: biochemical, Sulfolobus solfataricus
Experimental: APEH activity was expressed in IU.
Protease inhibitor activities of the SsCEI peptides and the CLA isomers were carried out using a fixed amount of APEH or partially purified proteasome (3–5 nM and 0.12 mg/mL, respectively), and increasing the SsCEI and CLA isomer concentrations. Mixtures were pre-incubated for 30 min at 37°C before the addition of the substrate, and the enzymatic activities were followed as described above. Protease inhibitor activities of the SsCEI peptides and the CLA isomers were determined towards APEHSs. The protease and increasing concentrations of the inhibitors were mixed and preincubated for 30 min at 80°C before the addition of the specific substrate. The residual enzymatic activity was determined using the assay procedure described above.
All data were obtained from triplicate analyses of three different preparations. Data were presented as means ±S.D. Statistical analysis and IC50 values were calculated with the SigmaPlot 10.0 software through a non-linear curve-fitting method and using a simple binding isotherm equation. Groups were compared by Student's t test, and P<0.05 was considered as significant.

porcine APEH = molecular target: T1, porcine APEH (Sus scrofa, UniProt P19205); assay: Time-dependent inhibition of APEH; format: biochemical; conditions: pre-incubation at least 20 min at 37°C, then diluted 1:5 into assay mixture with substrate
T1 construct: mammalian APEHs purified from both porcine liver and human colon carcinoma intestinal cells (Caco-2); purchased Takara; host or cells: porcine liver
T1 sequence (P19205 1-732): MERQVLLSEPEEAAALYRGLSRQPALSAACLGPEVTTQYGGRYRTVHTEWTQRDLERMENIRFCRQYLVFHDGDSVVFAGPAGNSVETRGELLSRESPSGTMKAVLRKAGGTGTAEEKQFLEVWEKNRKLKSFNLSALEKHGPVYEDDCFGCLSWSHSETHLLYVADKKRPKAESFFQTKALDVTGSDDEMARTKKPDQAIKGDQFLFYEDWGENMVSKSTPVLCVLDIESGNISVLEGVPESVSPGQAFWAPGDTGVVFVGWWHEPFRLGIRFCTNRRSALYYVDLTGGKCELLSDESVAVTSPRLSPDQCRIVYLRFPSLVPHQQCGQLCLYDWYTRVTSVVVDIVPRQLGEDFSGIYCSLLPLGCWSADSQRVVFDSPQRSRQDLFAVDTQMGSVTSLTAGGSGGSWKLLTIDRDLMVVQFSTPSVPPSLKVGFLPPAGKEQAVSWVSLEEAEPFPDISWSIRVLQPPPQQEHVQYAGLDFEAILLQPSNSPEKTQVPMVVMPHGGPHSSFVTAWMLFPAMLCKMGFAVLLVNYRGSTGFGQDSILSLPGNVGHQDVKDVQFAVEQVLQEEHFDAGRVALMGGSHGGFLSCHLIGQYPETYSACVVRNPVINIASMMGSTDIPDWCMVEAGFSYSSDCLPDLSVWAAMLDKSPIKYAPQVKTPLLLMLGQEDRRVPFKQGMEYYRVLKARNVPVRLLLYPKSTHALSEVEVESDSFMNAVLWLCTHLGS
Experimental: The time-dependent inhibition of SsCEI 4 and t10c12-CLA towards APEH was assessed. Mixtures containing appropriate amounts of each inhibitor and of APEH were pre-incubated for 20 min at 37°C; they were then diluted (1∶5) into the standard assay mixture, which contained the substrate only. The enzymatic activity was followed as described above. Control samples were prepared by pre-incubating the same amounts of APEH without the inhibitors and then diluted in the standard assay mixture.

APEH in Caco-2 cells = assay: APEH activity in Caco-2 cells; conditions: differentiated Caco-2 cells, 200 µM, 48 h (maximum effect)
Experimental: Porcine liver APEH activity was measured spectrophotometrically using the chromogenic substrate acetyl-Ala-pNA (Bachem). The reaction mixture (1 mL) containing pure APEH (38 ng) or an appropriate amount of cell extract in 50 mM Tris-HCl buffer pH 7.5 (Tris Buffer), was preincubated at 37°C for 2 min. Then, 1 mM acetyl-Ala-pNA was added and the release of p-nitroanilide (ε410 = 8800 M-1 cm-1) was measured by recording the absorbance increase at 410 nm on a Cary 100 Scan (Varian) UV/Vis spectrophotometer, equipped with a thermostated cuvette compartment. APEH activity was expressed in IU. The APEHSs activity was measured using acetyl-Leu-pNA (0.1 mM) (Sigma) as substrate. The reaction mixture (1 mL) containing the appropriate amount of enzyme in 25 mM Tris-HCl buffer pH 7.5, was preincubated at 80°C for 2 min. Then, 0.1 mM acetyl-Leu-pNA was added and the release of p-nitroanilide was measured, following the standard assay procedure described above.
Caco-2 cells (ATCC) were cultivated in DMEM supplemented with 10% FBS, 1 mM glutamine and 100 units/mL penicillin-streptomycin at 37°C in a humidified 5% CO2 atmosphere. The cells were studied between passages 12 and 22. The cells were split using trypsin-EDTA solution and plated in 6-well plates at a density of 8×10^4 cells/mL and the medium was replaced every 2–3 days. Under these conditions, the cells reached visual confluence after 7 days and the differentiated stage two weeks later. The differentiated cells were incubated for 48 h with the different substances.
Following the treatments, the BHK and Caco-2 cells were washed three times with ice cold phosphate-buffered saline and collected immediately at 4°C in lysis buffer (1% Triton X-100, 0.1% SDS, 20 mM Tris-HCl, pH 8.0, 150 mM NaCl, 0.5% sodium deoxycholate and complete protease inhibitors [Roche]). The lysates were centrifuged at 10,000×g for 15 min at 4°C. The protein concentrations in the clear supernatants were determined (BCA protein assay reagent kit; Pierce) before their use in enzymatic assays or SDS–PAGE.

[1] = system: proteasome CT-like activity in Caco-2 cells; assay: CT-like proteasome activity in Caco-2 cells
Experimental: The synthetic fluorescent substrate N-succinyl-Leu-Leu-Val-Tyr-7-amido-4-methylcoumarin (N-Suc-LLVT-AMC) was used for the measurement of the CT-like activity of the proteasome, at a final concentration of 0.080 mM. The reaction mixture (0.9 mL) containing appropriate amount of proteasome was preincubated as above, in Tris buffer. N-Suc-LLVT-AMC was added, and the release of the fluorescent product (7-AMC) was monitored for 5 min in a Perkin–Elmer LS 50B fluorimeter. The excitation and emission wavelengths were 380 nm and 460 nm, respectively.
Caco-2 cells (ATCC) were cultivated in DMEM supplemented with 10% FBS, 1 mM glutamine and 100 units/mL penicillin-streptomycin at 37°C in a humidified 5% CO2 atmosphere. The cells were studied between passages 12 and 22. The cells were split using trypsin-EDTA solution and plated in 6-well plates at a density of 8×10^4 cells/mL and the medium was replaced every 2–3 days. […]
Following the treatments, the BHK and Caco-2 cells were washed three times with ice cold phosphate-buffered saline and collected immediately at 4°C in lysis buffer (1% Triton X-100, 0.1% SDS, 20 mM Tris-HCl, pH 8.0, 150 mM NaCl, 0.5% sodium deoxycholate and complete protease inhibitors [Roche]). […] The protein concentrations in the clear supernatants were determined (BCA protein assay reagent kit; Pierce) before their use in enzymatic assays or SDS–PAGE.

Caco-2 cells = assay: LDH release cytotoxicity assay in Caco-2 cells; conditions: 48 h
Experimental: The release of LDH was used as the marker for cell toxicity [48]. The culture supernatants were sampled at the end of the incubations and centrifuged (4,000×g, 5 min, and 4°C). Aliquots of the clear supernatant (10 µL) were incubated with 190 µL reaction buffer (200 mM Tris/HCl, pH 8.0, 0.7 mM p-iodonitrotetrazolium violet, 50 mM L-lactic acid, 0.3 mM phenazine methoxysulphate, 0.4 mM NAD,) for 30 min at 37°C. Absorbance was measured at 490 nm and the results were expressed as percentages of total LDH release from control cultures treated with 1% (w/v) Triton X-100 and calculated as: [(experimental value - blank value)/(total lysis -blank value)−100].

CCCCC/C=C\C=C\CCCCCCCCC(=O)O [t10c12-CLA, trans10-cis12 CLA]
IC50 (APEHSs; Ac-Leu-pNA 0.1 mM, 25 mM Tris-HCl pH 7.5, pre-incubated 30 min at 80°C, mean ± SD, read-out: IC50 towards APEHSs): 80 ± 2 µM | Ki (APEHSs; Lineweaver–Burk equation, Ac-Leu-pNA, read-out: Ki towards APEHSs): 140 ± 20 µM | inhibition mechanism towards APEHSs (APEHSs; Michaelis–Menten / Lineweaver–Burk analysis): non-competitive | inhibition of APEH after pre-incubation with the enzyme (porcine APEH): 43% | decrease of APEH activity in Caco-2 cells (APEH in Caco-2 cells): 50% | reduction in proteasomal CT-like activity ([1]; 200 µM, 48 h): 40% | dose-dependent decrease of CT-like proteasome activity in Caco-2 cells ([1]; increasing concentrations, printed 'up to 45% of the residual activity' vs untreated): up to 45% | toxicity (LDH release) compared with MG132 (Caco-2 cells; 200 µM SsCEI 4 or t10c12-CLA, 100 µM ebelactone, MG132 10 µM): significantly lower than that observed in culture incubated with MG132 | cytotoxic effect (LDH activity levels) (Caco-2 cells; up to highest concentration 200 µM): not associated with any cytotoxic effect
